Tests used:
[1] = system: B. subtilis; details: if the methyl sulfur moiety of the molecule is recycled; reference [13]; cited from earlier work
[2] = system: B. subtilis; assay: Growth in the presence of trifluoromethylthioribose (3F-MTR), resistance phenotype; type: cell-based, Bacillus subtilis; details: inactivation of mtnK, mtnS, mtnY and mtnW
Text: Mutants were obtained by transformation of a wild type strain with a random transposon library, selecting for growth in the presence of trifluoromethylthioribose (3F-MTR). The mutants were subsequently tested for growth on plates lacking sulfur source but supplemented with MTR: only those that could not grow were retained for further study. In order to ascertain that the resistant phenotype was not coming from secondary mutations but was directly related to the transposon insert, the chromosome DNA was extracted from each putative mutant and back transformed into a wild type strain selecting for the transposon antibiotic marker. The 3F-MTR and MTR phenotypes were subsequently tested and only those mutants that passed the test were retained. The insertion positions of the transposons were then sequenced. […]
(§1) Bacterial strains and plasmids, and growth media: E. coli and B. subtilis strains as well as plasmids used in this work are listed in Table 3. […] In the latter case, 10 [μl of the sulfur source under investigation was applicated onto paper discs (MTR, 200 mM stock solution and methionine, 100 mM stock solution) deposited at the center of the plate, after bacteria had been uniformly spread at the surface of the plate, and growth was measured around the disK. […] The optical density (OD) of bacterial cultures was measured at 600 nm. […]

[3] = system: Strain BSHP7014 (mtnW:lacZ amyE::pxyl mtnXYZ); assay: Toxicity of MTR for BSHP7014 strain (paper disc on ED1 minimal medium plates); type: cell-based, Bacillus subtilis; details: inferred from MTR toxicity in mtnU or mtnW mutants with functional mtnY
Experimental: Toxicity of MTR for BSHP7014 strain. Strain BSHP7014 (mtnW:lacZ amyE::pxyl mtnXYZ) was grown on ED1 minimal medium plates in the presence of sulfate as sulfur source (panel A) or in the absence of any added sulfur source (agar as sole sulfur source, panel B). Xylose was added to the medium in order to trigger the expression of mtnXYZ from the pxyl promoter, 10 μl of methionine (met) or MTR was adsorbed on paper discs and plates were incubated over-night at 37° C. Methionine was used as a control for growth and/or toxicity of the sulfur source.
Two genes in the pathway are dispensable, mtnV and mtnX. The first one encodes a transaminase of which there are nine putative paralogs in the genome of B. subtilis (YwfG, AlaT, AspB, PatA, YhdR, YdfD, PatB, YisV, and HisC). In the same way, MtnX (YkrX) is a member of the phosphatase family pfam00702 ([12], FIG. 6), and therefore of a ubiquitous class of hydrolases (several phosphatase genes, in particular are present in the genome of B. subtilis). This is likely to account for the lack of phenotype under our growth conditions. […] In contrast, we discovered that MTR is toxic when the distal genes are present (when used as sole sulfur source or in the presence of sulfate, see FIG. 7). Because of the weak phenotype of a mtnZ mutant and the absence of phenotype of a mtnX mutant, we can be confident that MtnY acts before MtnW (this is a common feature in operons, where it is generally observed that the more distal genes code for proteins acting in the more proximate steps of the pathway).
as §1, with “3. E. coli TG1 and XL1-Blue were used for cloning experiments (TG1 for single cross-over recombination and XL1-Blue for double cross-over recombination). Despite the fact that there are no public regulations yet in this domain in China, all experiments were performed in accordance with the European regulation requirements concerning the contained use of Genetically Modified Organisms of Group-I (French agreement N^o 2735).” for “3.”

| SMILES | Toxicity of the MTR analog [1] | Phenotype towards 3F-MTR [2] | Toxicity to the cells [3] |
| --- | --- | --- | --- |
| O=C[C@H](O)[C@H](O)[C@H](O)CSC(F)(F)F [3F-MTR, 5-thio-5-5-S-trifluoromethyl-D-ribose] | toxic | resistance |  |
| CSCC(O)C(O)C(=O)COP(=O)(O)O (stereo not drawn) [5-thiomethylribulose-1-phosphate] |  |  | toxic |

From patent US20040019066A1, “Methionine salvage pathway in bacillus” (priority 2002, published 2004)
